This is an account of results in patent US6703403B2, “Method for improving pharmacokinetics” (Abbott Laboratories, priority 1995, dated 2004).

For orientation: Cmax means the maximum level reached in the sampled fluid or tissue. For orientation: Tmax means the time at which the peak concentration occurs.

Data set [1] can be described thus: Pharmacokinetics of HIV protease inhibitors in rats, alone vs. in combination with ritonavir. The data set is classed as in vivo. As to conditions: rat, po, 10 mg/kg; for AUC(0-t): read-out: AUC (0-8 h). As to the method: Rats (male, Sprague-Dawley derived, 0.3-0.45 kg) were fasted overnight prior to dosing, but were permitted water ad libitum. […] The solutions, administered orally by gavage to a group of rats at a dose volume of 2 ml/kg, provided a 10 mg/kg dose of each compound. […] The plasma was separated from the red cells by centrifugation and frozen (−30° C.) until analysis. […] The peak plasma concentration (Cmax) and time to peak plasma concentration (Tmax) for each rat were obtained directly from the plasma concentration data. The area under the curve was calculated by the trapezoidal method over the time course of the study. The plasma elimination half life was obtained from NONLIN84 or from a log-linear regression of the terminal plasma concentrations as a function of time after dosing. Each combination was evaluated in a group containing at least three rats; the values reported are averages for each group of animals. The data obtained from the combination was compared to data obtained from a separate group of rats which received a single, separate dose of the compound under evaluation.

Data set [2] in a line: Pharmacokinetics of clarithromycin in humans, alone vs. in combination with ritonavir. Format: in vivo. As to conditions: oral, healthy human volunteers, 500 mg every 12 hours, single agent, day four of dosing, plasma. From the text: Blood samples were collected on day four of dosing for HPLC determination of plasma concentrations of clarithromycin. Below in Table 2 are shown the results from the pharmacokinetic experiments with clarithromycin in humans.

The mark [3] stands for this setting: male, Sprague-Dawley, plasma, oral gavage 10 mg/kg, compound administered as a single agent, plasma.
The mark [4] stands for this setting: male, Sprague-Dawley, plasma, oral gavage 10 mg/kg, compound administered as a single agent, plasma, read-out: Cmax.
The mark [5] stands for this setting: male, Sprague-Dawley, plasma, oral gavage 10 mg/kg, compound administered as a single agent, plasma, read-out: Tmax.
Setting [6] is: male, Sprague-Dawley, plasma, oral gavage 10 mg/kg, dosed in combination with ritonavir 10 mg/kg, plasma.
[7] abbreviates: male, Sprague-Dawley, plasma, oral gavage 10 mg/kg, dosed in combination with ritonavir 10 mg/kg, plasma, read-out: Cmax.
Setting [8] is: male, Sprague-Dawley, plasma, oral gavage 10 mg/kg, dosed in combination with ritonavir 10 mg/kg, plasma, read-out: Tmax.

With `Cc1c(O)cccc1C(=O)NC(CSc1ccccc1)C(O)CN1CC2CCCCC2CC1C(=O)NC(C)(C)C` (centres unmarked) [AG1343], the AUC(0-t) in data set [1] (setting [3]) came out at 1140 ng·h/mL; in data set [1] (setting [6]), 11900 ng·h/mL. In addition, the Cmax is 400 ng/mL in data set [1] (setting [4]) and 1810 ng/mL in data set [1] (setting [7]). Moreover, the Tmax in data set [1] (setting [5]) amounted to 45 min; in data set [1] (setting [8]) it was 240 min.
As to `CC(C)[C@H](NC(=O)N(C)Cc1ccccn1)C(=O)N[C@@H](Cc1ccccc1)[C@H](O)[C@H](O)[C@H](Cc1ccccc1)NC(=O)[C@@H](NC(=O)N(C)Cc1ccccn1)C(C)C` [Compound A-77003, (2S,3R,4S,5S)-2,5-Di-(N-((N-methyl)-N-((2-pyridinyl)methyl)amino)carbonylvalinylamino)-3,4-dihydroxy-1,6-diphenyl hexane], the AUC(0-t) in data set [1] (setting [3]) turned out to be 25 ng·h/mL; in data set [1] (setting [6]) it was 1390 ng·h/mL. The Cmax was 70 ng/mL in data set [1] (setting [4]) and 960 ng/mL in data set [1] (setting [7]). Moreover, the Tmax is 15 min in data set [1] (setting [5]) and 40.2 min in data set [1] (setting [8]).
For `CC(C)[C@H](NC(=O)OCc1ccccn1)C(=O)N[C@@H](Cc1ccccc1)[C@@H](O)C[C@H](Cc1ccccc1)NC(=O)OCc1cccnc1` [Compound A-80987], in data set [1] (in vivo), the “AUC (0-8 h)” value is 1450 ng·h/mL, the Cmax is 2420 ng/mL and the Tmax turned out to be 15 min.
As to `CC(C)(C)NC(=O)[C@@H]1CN(Cc2cccnc2)CCN1C[C@@H](O)C[C@@H](Cc1ccccc1)C(=O)N[C@H]1c2ccccc2C[C@H]1O` [MK-639, N-(2(R)-hydroxy-1 (S)-indanyl)-2(R)-phenylmethyl-4(S)-hydroxy-5-(1-(4-(3-pyridylmethyl)-2(S)-N′-(t-butylcarboxamido)-piperazinyl))-pentaneamide], in data set [1] (male, Sprague-Dawley, in vivo), the “AUC (0-8 h)” value came out at 810 ng·h/mL and the Tmax was determined as 30 min. Also, the maximum concentration (Cmax) in data set [1] (male, Sprague-Dawley, in vivo, Cmax) turned out to be 1030 ng/mL.
`CC(C)(C)NC(=O)[C@@H]1C[C@@H]2CCCC[C@@H]2CN1C[C@@H](O)[C@H](Cc1ccccc1)NC(=O)[C@H](CC(N)=O)NC(=O)c1ccc2ccccc2n1` [Saquinavir, N-tert-butyl-decahydro-2-[2(R)-hydroxy-4-phenyl-3(S)-[[N-(2-quinolylcarbonyl)-L-asparaginyl]amino]butyl]-(4aS, 8aS)-isoquinoline-3(S)-carboxamide]: in data set [1] (male, Sprague-Dawley, in vivo), the “AUC (0-8 h)” value was 29 ng·h/mL, the maximum concentration (Cmax) worked out at 80 ng/mL and the Tmax was 10.8 min.
For the compound `CC(C)CN(CC(O)C(Cc1ccccc1)NC(=O)OC1CCOC1)S(=O)(=O)c1ccc(N)cc1` (centres unmarked) [VX-478], the AUC(0-t) stood at 1690 ng·h/mL in data set [1] (male, Sprague-Dawley, in vivo, oral gavage 10 mg/kg, compound administered as a single agent, plasma) and 13500 ng·h/mL in data set [1] (male, Sprague-Dawley, in vivo, oral gavage 10 mg/kg, dosed in combination with ritonavir 10 mg/kg, plasma). Moreover, the Cmax stood at 1610 ng/mL in data set [1] (male, Sprague-Dawley, in vivo, oral gavage 10 mg/kg, compound administered as a single agent, plasma, read-out: Cmax) and 2880 ng/mL in data set [1] (male, Sprague-Dawley, in vivo, oral gavage 10 mg/kg, dosed in combination with ritonavir 10 mg/kg, plasma, read-out: Cmax). Also, the Tmax in data set [1] (male, Sprague-Dawley, in vivo, oral gavage 10 mg/kg, compound administered as a single agent, plasma, read-out: Tmax) is 25.2 min; in data set [1] (male, Sprague-Dawley, in vivo, oral gavage 10 mg/kg, dosed in combination with ritonavir 10 mg/kg, plasma, read-out: Tmax), 90 min.
Regarding `CC[C@H]1OC(=O)[C@H](C)[C@@H](O[C@H]2C[C@@](C)(OC)[C@@H](O)[C@H](C)O2)[C@H](C)[C@@H](O[C@@H]2O[C@H](C)C[C@H](N(C)C)[C@H]2O)[C@](C)(OC)C[C@@H](C)C(=O)[C@H](C)[C@@H](O)[C@]1(C)O` [clarithromycin], in data set [2], the Cmax came out at 3930 ng/mL. Moreover, the AUC(0-t) in data set [2] (read-out: AUC (0-24 h)) was 49000 ng·h/mL.
